Reference: PMC4278898 (PLoS ONE, 2014)
Several values for one entry are separate records, joined by “and”; a condition that tells them apart may be missing. Equal values may be shown once. Entries after “also recorded” stand apart in the source; their conditions may differ. Read-outs that look alike come from different tables or passages of the source.

How the values were obtained:
HIV-1 BaL [1] = test: Anti-HIV activity in infected TZM-bl cells (luciferase); assay type: cell-based; details: for anti-HIV activity compared with the vehicle control (HIV-1 BaL, TZM-bl): concentration not stated (range 0.01–100 µM)
[2] = system: TZM-bl, HeLa, PBMC, and H9 cells; test: Cytotoxicity tests on TZM-bl, HeLa, PBMC and H9 cells (summary statements); assay type: cell-based, human; details: positive control AZT 60 µM
Experimental: (§3) The in vitro cytotoxic effect of each of the flavonoids was determined by a resazurin fluorometric method (Cell Titer Blue Viability Assay, Promega Corp, Madison, WI), as described by O'Brien et al. [27]. TZM-bl and HeLa adherent cells were each separately seeded (1×10^5 cell/mL) into a 96 well plate (Greiner Bio-One North America, Inc Monroe, NC, USA). After 24 hours, their morphology was observed under an inverted microscope. The experimental natural compounds were then added to the cultured cells (n = 9) plates, and incubated for 24 hours. The cells were washed with pre-warmed PBS (Lonza Walkersville, Inc. Walkersville, MD) and the medium was replaced with medium pre-warmed to 37°C. Resazurin was added, and the cells were incubated for 3.5 hours. […] The cytotoxic effect of the three flavonoids on H9 and PBMC cells was determined using the same protocol.

TZM-bl cells [3] = test: Cytotoxicity assay (resazurin fluorometric method), TZM-bl cells; assay type: cell-based, human
HeLa cells = test: Cytotoxicity assay (resazurin fluorometric method), HeLa cells; assay type: cell-based, human
PBMC cells = test: Cytotoxicity assay (resazurin fluorometric method), PBMC cells; assay type: cell-based, human
H9 cells = test: Cytotoxicity assay (resazurin fluorometric method), H9 cells; assay type: cell-based, human
HIV-1 MN [4] = test: Anti-HIV activity in H9 cells, HIV-1 MN (p24 ELISA); assay type: cell-based; details: for inhibition of infection / anti-HIV activity, H9 cells, HIV-1 MN: concentration not given
Experimental: (§1) HIV-1 infection of H9 cells was performed as described by Gurgo et al. as follows: H9 cells were seeded at 1×10^5 cell/mL into a 24 well plate. […] After 48 hours of incubation, the supernatant was collected and frozen at −80°C. ELISA was performed to detect p24, and the cytotoxicity assay was done using the resazurin fluorometric method, as described previously.
(§2) The HIV-1 p24 Antigen ELISA 2.0 Kit (ZeptoMetrix Corporation, Bufalo, NY) was used to monitor and determine the titer of HIV-1-based lentiviral samples, as described by Gonçalves et al.. For each sample (n = 9), a 225 µL volume was treated with 25 µL of lysing buffer. An ELISA array plate was washed three times with 300 µL/well of wash buffer in a microplate washer (MultiWash III, TriContinent, Grass Valley, CA), and 200 µL/well of each treated samples was transferred to the plate. The plate was incubated at 37°C for 3 hours, then washed six times, incubated for 1 hour with 100 µL/well of HIV-1 p24 detector antibody, washed six more times, and incubated 30 min at room temperature with 100 µL/well of substrate. The reaction was stopped by addition of stop solution (100 µL/well). The absorbance was determined using a microplate reader (SpectraMax M5, Molecular Devices, Sunnyvale, CA) at 450 nm, and the samples were calibrated against the HIV-1 p24 standard curve, generated from a series of standards loaded on the same plate.

HIV-1 89.6 [5] = test: Anti-HIV activity in H9 cells, HIV-1 89.6 (p24 ELISA); assay type: cell-based; details: for inhibition of infection / anti-HIV activity, H9 cells, HIV-1 89.6: p24 ELISA, concentration not given
Experimental: as §1, §2

HIV-1 MN [6] = test: Anti-HIV activity in PBMC, HIV-1 MN (p24 ELISA); assay type: cell-based; details: for anti-HIV activity, PBMC cells, HIV-1 MN: concentration not given
HIV-1 89.6 [7] = test: Anti-HIV activity in PBMC, HIV-1 89.6 (p24 ELISA); assay type: cell-based; details: for anti-HIV activity, PBMC cells, HIV-1 89.6: p24 ELISA, concentration not given; for IC50: Human immunodeficiency virus 1, HIV-1 89.6, p24 ELISA
Experimental: The viability of the cells was assessed by the resazurin fluometric method as describe previously. After incubation, the supernatant from each well was collected and stored at -80°C for performance of p24 ELISA.
as §2

[8] = Cytotoxicity tests on TZM-bl, HeLa, PBMC and H9 cells (summary statements); assay type: cell-based, human; details: human, TZM-bl, HeLa, PBMC, H9; for viability at 24 h: at concentrations between 20 µM–60 µM, read-out: cell viability
Experimental: as §3

TZM-bl cells [9] = test: Cell viability in the dual-chamber model (resazurin); details: resazurin method
Experimental: The in vitro cytotoxic effect of each of the flavonoids was determined by a resazurin fluorometric method (Cell Titer Blue Viability Assay, Promega Corp, Madison, WI), as described by O'Brien et al. [27]. TZM-bl and HeLa adherent cells were each separately seeded (1×10^5 cell/mL) into a 96 well plate (Greiner Bio-One North America, Inc Monroe, NC, USA). After 24 hours, their morphology was observed under an inverted microscope. The experimental natural compounds were then added to the cultured cells (n = 9) plates, and incubated for 24 hours. The cells were washed with pre-warmed PBS (Lonza Walkersville, Inc. Walkersville, MD) and the medium was replaced with medium pre-warmed to 37°C. Resazurin was added, and the cells were incubated for 3.5 hours.
Transwell assay inserts with 8 µM diameter pores and 0.3 cm^2 of culture surface (Greiner Bio-One, Monroe, NC,) were positioned in the wells of a 24-well plate. Then 1×10^4 HeLa cells were seeded into each transwell insert/apical chamber (using DMEM with 10% FBS). […] To assess confluence, the Trans Epithelial Electric Resistance (TEER) (described by Arien et al. [33]) of each HeLa cell layer was measured with a Millicell-ERS Volt-Ohm Meter (Millipore, Bedford, MA) before and after flavonoids treatments. Cell layer confluence in the transwell inserts was measured daily, until the optimal TEER (>150 Ohm/cm^2) was reached on day 4. […]

HeLa cell layer = test: Trans Epithelial Electric Resistance (TEER) of HeLa cell layer in dual-chamber model; details: dual-chamber transwell insert
Experimental: (§4) Transwell assay inserts with 8 µM diameter pores and 0.3 cm^2 of culture surface (Greiner Bio-One, Monroe, NC,) were positioned in the wells of a 24-well plate. Then 1×10^4 HeLa cells were seeded into each transwell insert/apical chamber (using DMEM with 10% FBS). TZM-bl cells (1×10^5) were seeded into the basal chambers below the inserts, and the plates were incubated at 37°C in humid air containing 5% CO2. To assess confluence, the Trans Epithelial Electric Resistance (TEER) (described by Arien et al. [33]) of each HeLa cell layer was measured with a Millicell-ERS Volt-Ohm Meter (Millipore, Bedford, MA) before and after flavonoids treatments. Cell layer confluence in the transwell inserts was measured daily, until the optimal TEER (>150 Ohm/cm^2) was reached on day 4. On day 4, the media in the basal chamber and the insert was replaced with new pre-warmed media. […] The plate was incubated at 37°C, in humid air containing 5% CO2.

HIV-1 BaL [10] = test: Microbicide activity in the dual-chamber model (HeLa apical, TZM-bl basal; luciferase); details: Human immunodeficiency virus 1, BAL
Experimental: as §4
The experiments were performed in triplicate and repeated three different times.

[11] = TZM-bl cells, 24 hours treatment, concentration that kills 50% of the cells
[12] = Human immunodeficiency virus 1, BAL, TZM-bl
[13] = Human immunodeficiency virus 1, H9
[14] = Human immunodeficiency virus 1, H9 cells, HIV-1 MN, p24 ELISA, read-out: IC50
[15] = Human immunodeficiency virus 1, H9 cells, HIV-1 89.6, p24 ELISA, read-out: IC50
[16] = Human immunodeficiency virus 1, PBMC cells, HIV-1 MN, p24 ELISA, read-out: IC50

## Cc1cn([C@H]2C[C@H](N=[N+]=[N-])[C@@H](CO)O2)c(=O)[nH]c1=O [AZT, Zidovudine, reference compound]
HIV-1 BaL [1]; Human immunodeficiency virus 1, BAL, TZM-bl, read-out: inhibition of HIV infection by positive control (HIV-1 BaL, TZM-bl)
  inhibition at 60 µM: ≥ 90%
[2]
  effect on cell growth: did not affect the cell growth

## O=c1c(O)c(-c2cc(O)c(O)c(O)c2)oc2cc(O)cc(O)c12 [Myricetin]
TZM-bl cells [3]; [11]
  LD50: 1214.92 µM and 1214.72 µM
HeLa cells; HeLa cells, 24 hours treatment
  LD50: 804.94 µM
PBMC cells; PBMC cells
  LD50: 1159.26 µM
H9 cells; H9 cells
  LD50: 1059.09 µM
HIV-1 BaL [1]; [12]
  IC50: 20.4 µM
HIV-1 BaL [1]; Human immunodeficiency virus 1, BAL, TZM-bl, read-out: inhibition of HIV-1 BaL infection in TZM-bl cells
  inhibition at 100 µM: > 87%
HIV-1 MN [4]; H9 cells
  anti-HIV activity greater compared to Pinocembrin, HIV-1 MN, H9: ~2.9 x
  anti-HIV activity greater than that of Quercetin, HIV-1 MN, H9: approximately 1.7 x
HIV-1 MN [4]; [13]
  IC50: 22.9 µM
HIV-1 89.6 [5]; H9 cells
  anti-HIV activity greater than for Pinocembrin, HIV-1 89.6, H9: 23.9 x
  anti-HIV activity greater than for Quercetin, HIV-1 89.6, H9: 16.9 x
HIV-1 89.6 [5]; [13]
  IC50: 1.76 µM
HIV-1 MN [6]; Human immunodeficiency virus 1, PBMC
  IC50: 4.49 µM
HIV-1 MN [6]; Human immunodeficiency virus 1, PBMC, read-out: inhibition of HIV-1 MN infection in PBMC cells
  inhibition at 100 µM: 86%
HIV-1 89.6 [7]; Human immunodeficiency virus 1, PBMC, read-out: inhibition of HIV-1 89.6 infection in PBMC cells
  inhibition at 100 µM: 85%
HIV-1 89.6 [7]; PBMC cells
  x higher than Pinocembrin, HIV-1 89.6, PBMC: 16.4 x
  x higher than Quercetin, HIV-1 89.6, PBMC: 12.3 x
HIV-1 89.6 [7]
  anti-HIV activity, PBMC cells, HIV-1 89.6: more than 80%
[8]; PBMC and H9 cells, at 100 µM concentration, read-out: cell viability compared with the negative control (only cells)
  viability at 24 h, 100 µM: ≥ 85%
TZM-bl cells [9]
  cell viability in dual-chamber model versus negative control (only cells): no statistically significant difference; also recorded: did not show a statistically significant difference on cell viability
HeLa cell layer
  TEER of HeLa cell layer before and after flavonoid treatment: 208 Ohm/cm^2
HIV-1 BaL [10]; read-out: IC50, HIV-1 BaL infection in dual-chamber system
  IC50: 19.5 µM
HIV-1 BaL [10]; read-out: inhibition of HIV-1 BaL infection in dual-chamber system
  inhibition at 100 µM: > 88%

## O=C1C[C@@H](c2ccccc2)Oc2cc(O)cc(O)c21 [Pinocembrin]
TZM-bl cells [3]; human, 24 h
  LD50: 67.94 µM
HeLa cells; human, 24 h
  LD50: 99.52 µM
PBMC cells; human, 24 h
  LD50: 788.23 µM
H9 cells; human, 24 h
  LD50: 805.76 µM
HIV-1 BaL [1]; Human immunodeficiency virus 1, TZM-bl cells, HIV-1 BaL, MOI = 1, read-out: IC50
  IC50: 347 µM
HIV-1 BaL [1]
  anti-HIV activity compared with the vehicle control (HIV-1 BaL, TZM-bl): 28%
HIV-1 MN [4]; [14]
  IC50: 67.2 µM
HIV-1 MN [4]; p24 ELISA
  inhibition of infection / anti-HIV activity, H9 cells, HIV-1 MN: ≥ 60%
HIV-1 89.6 [5]; [15]
  IC50: 42.2 µM
HIV-1 89.6 [5]
  inhibition of infection / anti-HIV activity, H9 cells, HIV-1 89.6: ≥ 60%
HIV-1 MN [6]; [16]
  IC50: 57.7 µM
HIV-1 MN [6]; p24 ELISA
  anti-HIV activity, PBMC cells, HIV-1 MN: 67%
HIV-1 89.6 [7]; PBMC cells
  IC50: 53.2 µM
HIV-1 89.6 [7]
  anti-HIV activity, PBMC cells, HIV-1 89.6: 51%
[8]; PBMC and H9 cells
  viability at 24 h: ≥ 85%

## O=c1c(O)c(-c2ccc(O)c(O)c2)oc2cc(O)cc(O)c12 [Quercetin]
TZM-bl cells [3]; [11]
  LD50: 119.23 µM
HeLa cells; HeLa cells, 24 hours treatment
  LD50: 78.20 µM
PBMC cells; PBMC cells
  LD50: 813.57 µM
H9 cells; H9 cells
  LD50: 905.76 µM
HIV-1 BaL [1]; [12]
  IC50: 89 µM
HIV-1 BaL [1]
  anti-HIV activity compared with the vehicle control (HIV-1 BaL, TZM-bl): 39%
HIV-1 MN [4]; [14]
  IC50: 38.8 µM
HIV-1 MN [4]; p24 ELISA
  inhibition of infection / anti-HIV activity, H9 cells, HIV-1 MN: ≥ 64%
HIV-1 89.6 [5]; [15]
  IC50: 29.8 µM
HIV-1 89.6 [5]
  inhibition of infection / anti-HIV activity, H9 cells, HIV-1 89.6: ≥ 64%
HIV-1 MN [6]; [16]
  IC50: 31.7 µM
HIV-1 MN [6]; p24 ELISA
  anti-HIV activity, PBMC cells, HIV-1 MN: 45%
HIV-1 89.6 [7]; PBMC cells
  IC50: 39.3 µM
HIV-1 89.6 [7]
  anti-HIV activity, PBMC cells, HIV-1 89.6: 59%
[8]
  viability at 24 h: ≥ 85%
